The values that follow come from ChEMBL document CHEMBL6127119 (J Med Chem, 2024).

Common to all, as to assay type: functional
Holding throughout (conditions): time 16-24 hrs

Assay [1] deals with Enterococcus faecium. The experiment in a line: Potency index, ratio of Norvancomycin MIC to test compound MIC for vancomycin-resistant Enterococcus faecium incubated for 16 to 24 hrs by CLSI based broth microdilution method. Background: Broth dilution looks for growth in wells or tubes with falling amounts of substance.
For assay [2], the system named is Acinetobacter baumannii. Briefly: Antibacterial activity against Carbapenem-resistant Acinetobacter baumannii clinical isolate incubated for 16 to 24 hrs by CLSI based broth microdilution method.
The test system of assay [3] is Staphylococcus aureus. The experiment in a line: Antibacterial activity against methicillin-susceptible Staphylococcus aureus incubated for 16 to 24 hrs by CLSI based broth microdilution method.
In assay [4] the test system is Enterococcus faecium. Briefly: Antibacterial activity against vancomycin-resistant Enterococcus faecium harboring VanB phenotype incubated for 16 to 24 hrs by CLSI based broth microdilution method.
Assay [5] deals with Enterococcus faecium. The experiment in a line: Antibacterial activity against vancomycin-resistant Enterococcus faecium harboring VanA phenotype incubated for 16 to 24 hrs by CLSI based broth microdilution method.
Assay [6] concerns Escherichia coli. The experiment in a line: Antibacterial activity against Escherichia coli AB1157 incubated for 16 to 24 hrs by CLSI based broth microdilution method.
Assay [7] relates to Escherichia coli. The experiment in a line: Potency index, ratio of Norvancomycin MIC to test compound MIC for Escherichia coli […] incubated for 16 to 24 hrs by CLSI based broth microdilution method.
Assay [8] relates to Escherichia coli. Briefly: Potency index, ratio of Vancomycin MIC to test compound MIC for Escherichia coli […] incubated for 16 to 24 hrs by CLSI based broth microdilution method.
Assay [9] relates to Staphylococcus aureus. Briefly: Potency index, ratio of Vancomycin MIC to test compound MIC for vancomycin-intermediate Staphylococcus aureus incubated for 16 to 24 hrs by CLSI based broth microdilution method.
For assay [10], the system named is Staphylococcus aureus. Briefly: Potency index, ratio of Norvancomycin MIC to test compound MIC for vancomycin-intermediate Staphylococcus aureus incubated for 16 to 24 hrs by CLSI based broth microdilution method.
Assay [11] concerns Pseudomonas aeruginosa. Briefly: Antibacterial activity against Pseudomonas aeruginosa PAO1 incubated for 16 to 24 hrs by CLSI based broth microdilution method.
The test system of assay [12] is Acinetobacter baumannii. The experiment in a line: Potency index, ratio of Norvancomycin MIC to test compound MIC for Carbapenem-resistant Acinetobacter baumannii clinical isolate incubated for 16 to 24 hrs by CLSI based broth microdilution method.
Assay [13] relates to Staphylococcus aureus. Briefly: Antibacterial activity against vancomycin-intermediate Staphylococcus aureus incubated for 16 to 24 hrs by CLSI based broth microdilution method.
Assay [14] concerns Enterococcus faecium. Briefly: Potency index, ratio of Vancomycin MIC to test compound MIC for vancomycin-resistant Enterococcus faecium incubated for 16 to 24 hrs by CLSI based broth microdilution method.
Assay [15] concerns Enterococcus faecium. Briefly: Antibacterial activity against vancomycin-resistant Enterococcus faecium harboring VanM phenotype incubated for 16 to 24 hrs by CLSI based broth microdilution method.
Assay [16] deals with Acinetobacter baumannii. Briefly: Potency index, ratio of Vancomycin MIC to test compound MIC for Carbapenem-resistant Acinetobacter baumannii clinical isolate incubated for 16 to 24 hrs by CLSI based broth microdilution method.
The test system of assay [17] is Klebsiella pneumoniae. The experiment in a line: Antibacterial activity against Klebsiella pneumoniae clinical isolate incubated for 16 to 24 hrs by CLSI based broth microdilution method.

≈ marks a conversion by molar mass, not a printed value. Bounds are passed on as bounds.

With `CC(C)C[C@@H](N)C(=O)N[C@H]1C(=O)N[C@@H](CC(N)=O)C(=O)N[C@H]2C(=O)N[C@H]3C(=O)N[C@H](C(=O)N[C@H](C(=O)NCc4ccc(-c5ccccc5CNC(=N)N)cc4)c4cc(O)cc(O)c4-c4cc3ccc4O)[C@H](O)c3ccc(c(Cl)c3)Oc3cc2cc(c3O[C@@H]2O[C@H](CO)[C@@H](O)[C@H](O)[C@H]2O[C@H]2C[C@](C)(N)[C@H](O)[C@H](C)O2)Oc2ccc(cc2Cl)[C@H]1O`, the Ratio in [1], in assay [7], in [8], in assay [9], in [10] and in [12] was 2 in each case. The Ratio in assay [14] and in assay [16] was 2 each time. The MIC (in general, the least concentration at which growth counts as inhibited) in assay [2] was 16 µg/mL (≈ 9.57 µM); in [3], not above 0.063 µg/mL; in [4] it was 2 µg/mL (≈ 1.2 µM); in [5], 4 µg/mL (≈ 2.39 µM); in assay [6], 8 µg/mL (≈ 4.79 µM); in [11], 32 µg/mL (≈ 19.1 µM). Also, the figures for the MIC in assay [13], in [15] and in assay [17] were 0.5 µg/mL (≈ 0.299 µM), 2 µg/mL (≈ 1.2 µM) and more than 128 µg/mL, respectively.
Regarding `CN[C@H](CC(C)C)C(=O)N[C@H]1C(=O)N[C@@H](CC(N)=O)C(=O)N[C@H]2C(=O)N[C@H]3C(=O)N[C@H](C(=O)N[C@H](C(=O)NCc4ccc(-c5ccc(CNC(=N)N)cc5)cc4)c4cc(O)cc(O)c4-c4cc3ccc4O)[C@H](O)c3ccc(c(Cl)c3)Oc3cc2cc(c3O[C@@H]2O[C@H](CO)[C@@H](O)[C@H](O)[C@H]2O[C@H]2C[C@](C)(N)[C@H](O)[C@H](C)O2)Oc2ccc(cc2Cl)[C@H]1O`, the Ratio in assay [1], in [7], in [8], in assay [9], in [10] and in assay [12] was 2 in each case. Besides, the Ratio in [14] and in [16] was 2 each time. The MIC in assay [2] came out at 32 µg/mL (≈ 19 µM); in [3], 0.125 µg/mL (≈ 0.0742 µM); in assay [4] it was 1 µg/mL (≈ 0.593 µM); in assay [5] it was 2 µg/mL (≈ 1.19 µM); in assay [6], 8 µg/mL (≈ 4.75 µM); in [13], 0.5 µg/mL (≈ 0.297 µM). The MIC in [15] was 2 µg/mL (≈ 1.19 µM); in assay [17], more than 128 µg/mL.
With `CN[C@H](CC(C)C)C(=O)N[C@H]1C(=O)N[C@@H](CC(N)=O)C(=O)N[C@H]2C(=O)N[C@H]3C(=O)N[C@H](C(=O)N[C@H](C(=O)NCc4ccc(-c5ccc(CCNC(=N)N)cc5)cc4)c4cc(O)cc(O)c4-c4cc3ccc4O)[C@H](O)c3ccc(c(Cl)c3)Oc3cc2cc(c3O[C@@H]2O[C@H](CO)[C@@H](O)[C@H](O)[C@H]2O[C@H]2C[C@](C)(N)[C@H](O)[C@H](C)O2)Oc2ccc(cc2Cl)[C@H]1O`, the Ratio in assay [1], in assay [7], in [8], in [9], in [10] and in assay [12] was 2 each time. Moreover, the Ratio in assay [14] and in [16] was 2 each time. The MIC in [2] stood at 16 µg/mL (≈ 9.41 µM); in assay [3], 0.25 µg/mL (≈ 0.147 µM); in assay [4] it was 1 µg/mL (≈ 0.588 µM); in [5], 2 µg/mL (≈ 1.18 µM); in assay [6] it was 8 µg/mL (≈ 4.71 µM); in assay [13] it was 0.5 µg/mL (≈ 0.294 µM). In addition, the results for the minimum inhibitory concentration (MIC) in [15] and in assay [17] were 2 µg/mL (≈ 1.18 µM) and more than 128 µg/mL, respectively.
As to `CN[C@H](CC(C)C)C(=O)N[C@H]1C(=O)N[C@@H](CC(N)=O)C(=O)N[C@H]2C(=O)N[C@H]3C(=O)N[C@H](C(=O)N[C@H](C(=O)NCCc4ccc(-c5ccc(CNC(=N)N)cc5)cc4)c4cc(O)cc(O)c4-c4cc3ccc4O)[C@H](O)c3ccc(c(Cl)c3)Oc3cc2cc(c3O[C@@H]2O[C@H](CO)[C@@H](O)[C@H](O)[C@H]2O[C@H]2C[C@](C)(N)[C@H](O)[C@H](C)O2)Oc2ccc(cc2Cl)[C@H]1O`, the Ratio in [1], in [7], in [8], in assay [9], in assay [10] and in assay [12] was 2 each time. Moreover, the Ratio in assay [14] and in [16] was 2 in each case. For the same compound, the MIC in [2] was 64 µg/mL (≈ 37.7 µM); in [3] it was 0.125 µg/mL (≈ 0.0735 µM); in [4], 4 µg/mL (≈ 2.35 µM); in [5] it was 2 µg/mL (≈ 1.18 µM); in assay [6] it was 8 µg/mL (≈ 4.71 µM); in assay [13], 0.5 µg/mL (≈ 0.294 µM). The values for the MIC in [15] and in assay [17] were 2 µg/mL (≈ 1.18 µM) and more than 128 µg/mL, respectively.
As to `CC(C)C[C@@H](N)C(=O)N[C@H]1C(=O)N[C@@H](CC(N)=O)C(=O)N[C@H]2C(=O)N[C@H]3C(=O)N[C@H](C(=O)N[C@H](C(=O)O)c4cc(O)c(CNCCCCCCCCNC(=N)N)c(O)c4-c4cc3ccc4O)[C@H](O)c3ccc(c(Cl)c3)Oc3cc2cc(c3O[C@@H]2O[C@H](CO)[C@@H](O)[C@H](O)[C@H]2O[C@H]2C[C@](C)(N)[C@H](O)[C@H](C)O2)Oc2ccc(cc2Cl)[C@H]1O`, the MIC amounted to 128 µg/mL (≈ 78.4 µM) in assay [2]; 1 µg/mL (≈ 0.612 µM) in assay [3]; 128 µg/mL (≈ 78.4 µM) in assay [4]; 64 µg/mL (≈ 39.2 µM) in assay [5]; 32 µg/mL (≈ 19.6 µM) in assay [6]; 128 µg/mL (≈ 78.4 µM) in [11]. Also, the MIC was 4 µg/mL (≈ 2.45 µM) in assay [13], 32 µg/mL (≈ 19.6 µM) in assay [15] and more than 128 µg/mL in [17].
`CC(C)C[C@@H](N)C(=O)N[C@H]1C(=O)N[C@@H](CC(N)=O)C(=O)N[C@H]2C(=O)N[C@H]3C(=O)N[C@H](C(=O)N[C@H](C(=O)NCCOCCOCCN)c4cc(O)cc(O)c4-c4cc3ccc4O)[C@H](O)c3ccc(c(Cl)c3)Oc3cc2cc(c3O[C@@H]2O[C@H](CO)[C@@H](O)[C@H](O)[C@H]2O[C@H]2C[C@](C)(N)[C@H](O)[C@H](C)O2)Oc2ccc(cc2Cl)[C@H]1O`: the MIC is more than 128 µg/mL in assay [2]; 0.5 µg/mL (≈ 0.319 µM) in [3]; 64 µg/mL (≈ 40.9 µM) in assay [4]; 64 µg/mL (≈ 40.9 µM) in assay [5]; 64 µg/mL (≈ 40.9 µM) in assay [6]; more than 128 µg/mL in [11]. Moreover, the minimal inhibitory concentration (MIC) was 4 µg/mL (≈ 2.56 µM) in assay [13], 64 µg/mL (≈ 40.9 µM) in assay [15] and more than 128 µg/mL in assay [17].
With `CC(C)C[C@@H](N)C(=O)N[C@H]1C(=O)N[C@@H](CC(N)=O)C(=O)N[C@H]2C(=O)N[C@H]3C(=O)N[C@H](C(=O)N[C@H](C(=O)NCCCCN)c4cc(O)cc(O)c4-c4cc3ccc4O)[C@H](O)c3ccc(c(Cl)c3)Oc3cc2cc(c3O[C@@H]2O[C@H](CO)[C@@H](O)[C@H](O)[C@H]2O[C@H]2C[C@](C)(N)[C@H](O)[C@H](C)O2)Oc2ccc(cc2Cl)[C@H]1O`, the MIC in [2] is more than 128 µg/mL; in [3], 0.5 µg/mL (≈ 0.332 µM); in assay [4], 128 µg/mL (≈ 85 µM); in [5], 64 µg/mL (≈ 42.5 µM); in [6], 32 µg/mL (≈ 21.3 µM); in assay [11] it was more than 128 µg/mL. Also, the minimum inhibitory concentration (MIC) in [13] is 8 µg/mL (≈ 5.31 µM); in assay [15] it was 128 µg/mL (≈ 85 µM); in [17], more than 128 µg/mL.
